Values of other authors as cited in patent publication US9827328B2, “Combination therapy for treatment of cancer” (UNIVERSITY OF SOUTH ALABAMA, priority 2011, dated 2017).
Like-named read-outs stand apart in the source and are kept apart here.

How the values were obtained:
[1] = test system: patients with advanced or metastatic breast cancer; settings: weekly nab-paclitaxel v every-three week Taxotere
[2] = test system: patients with metastatic breast cancer

Row | rate of grade 4 neutropenia [1] | number of patients with persistent grade 3 sensory neuropathy ([2]; by day 28 after first occurrence) | episodes of motor neuropathy or grade 4 sensory neuropathy ([2]; in vivo) | mean neutrophil nadir ([2]; in vivo) | treatment-related grade 3 sensory neuropathy ([2]; in vivo) | Structure (SMILES) | incidence of hyperglycemia reported as adverse effect ([2]; all patients) | median survival ([2]; all patients) | median time to tumor progression (TTP) ([2]; all patients) | overall response rate (ORR) ([2]; all patients, ITT) | incidence of treatment-related grade 4 neutropenia ([2]; in vivo) | severe (grade 3 or 4) treatment-related hypersensitivity reactions ([2]; nab-paclitaxel without premedication, Taxol with standard premedication) | tumor response rate ([2]; patients aged younger than 65 years) | ORR ([2]; patients who received first-line therapy) | ORR ([2]; patients with nonvisceral dominant lesions) | tumor response rate ([2]; patients with visceral dominant lesions) | ORR ([2]; patients ≧65 years old) | ORR ([2]; prior anthracycline therapy, adjuvant/metastatic setting) | ORR ([2]; prior anthracycline therapy, metastatic setting only) | ORR ([2]; second-line or greater therapy) | median survival ([2]; second-line or greater therapy)
1 | 75% |  |  |  |  | CC(=O)O[C@@]12CO[C@@H]1C[C@H](O)[C@@]1(C)C(=O)[C@H](O)C3=C(C)[C@@H](OC(=O)[C@H](O)[C@@H](NC(=O)OC(C)(C)C)c4ccccc4)C[C@@](O)([C@@H](OC(=O)c4ccccc4)[C@H]21)C3(C)C [Taxotere, docetaxel] |  |  |  |  |  |  |  |  |  |  |  |  |  |  | 
2 |  | 4 | No episodes | 1.31e+09 L⁻¹ | 2% | CC(=O)O[C@H]1C(=O)[C@@]2(C)[C@H]([C@H](OC(=O)c3ccccc3)[C@]3(O)C[C@H](OC(=O)[C@H](O)[C@@H](NC(=O)c4ccccc4)c4ccccc4)C(C)=C1C3(C)C)[C@]1(OC(C)=O)CO[C@@H]1C[C@@H]2O [Taxol, paclitaxel] | 7% | 55.7 weeks | 16.9 weeks | 19% | 22% | grade 3 hypersensitivity reactions occurred | 19% | 27% | 19% | 19% | 19% | 18% | 14% | 13% | 46.7 weeks
